Assay results reported in the supplement of paper PMC3770661.
± gives the uncertainty stated by the source.

Tested on: HepG2 (L1.3 5'UTR promoter firefly luciferase reporter)
Assay: L1 promoter activity (FLuc/RLuc) relative to DMSO vehicle control (% of control); higher = stronger L1 promoter activation
[1] = concentration (uM unless unit written): 50, treatment time: 6 h
[2] = concentration (uM unless unit written): 50, treatment time: 24 h
[3] = concentration (uM unless unit written): 100, treatment time: 6 h
[4] = concentration (uM unless unit written): 500, treatment time: 6 h
[5] = concentration (uM unless unit written): 500, treatment time: 24 h

CC(=O)N[C@H]1[C@@H](O[C@@H]2O[C@H](CC(O)[C@H]3O[C@@H](n4ccc(=O)[nH]c4=O)[C@H](O)[C@@H]3O)[C@H](O)[C@H](O)[C@H]2NC(=O)/C=C/CC(C)C)O[C@H](CO)[C@@H](N)[C@@H]1O (stereo partly drawn) [Tunicamycin]
L1 promoter activity (concentration (uM unless unit written): 5 μg/mL, treatment time: 6 h): 76.6 ± 8.1 | L1 promoter activity (concentration (uM unless unit written): 5 μg/mL, treatment time: 24 h): 73.3 ± 3.2 | L1 promoter activity (concentration (uM unless unit written): 10 μg/mL, treatment time: 6 h): 66.6 ± 7.3 | L1 promoter activity (concentration (uM unless unit written): 10 μg/mL, treatment time: 24 h): 84.5 ± 11 | L1 promoter activity (concentration (uM unless unit written): 20 μg/mL, treatment time: 6 h): 63.5 ± 3.2 | L1 promoter activity (concentration (uM unless unit written): 20 μg/mL, treatment time: 24 h): 72.1 ± 7.7 | L1 promoter activity (concentration (uM unless unit written): 40 μg/mL, treatment time: 24 h): 75.8 ± 6.2

CCCC(CCC)C(=O)O [Valproic acid]
L1 promoter activity (concentration (uM unless unit written): 2500, treatment time: 6 h): 90.2 ± 25 | L1 promoter activity (concentration (uM unless unit written): 2500, treatment time: 24 h): 18.5 ± 1.6

CC[C@]1(O)C[C@@H]2CN(CCc3c([nH]c4ccccc34)[C@@](C(=O)OC)(c3cc4c(cc3OC)N(C)[C@H]3[C@@](O)(C(=O)OC)[C@H](OC(C)=O)[C@]5(CC)C=CCN6CC[C@]43[C@@H]65)C2)C1 [Vinblastine]
L1 promoter activity (concentration (uM unless unit written): 0.1, treatment time: 6 h): 92.8 ± 15 | L1 promoter activity (concentration (uM unless unit written): 0.1, treatment time: 24 h): 181 ± 31 | L1 promoter activity (concentration (uM unless unit written): 1, treatment time: 6 h): 92.1 ± 23 | L1 promoter activity (concentration (uM unless unit written): 1, treatment time: 24 h): 161 ± 30 | L1 promoter activity (concentration (uM unless unit written): 5, treatment time: 6 h): 94 ± 12 | L1 promoter activity (concentration (uM unless unit written): 5, treatment time: 24 h): 207 ± 24

CC(=O)CC(c1ccccc1)c1c(O)c2ccccc2oc1=O (stereo not drawn) [Warfarin]
L1 promoter activity (concentration (uM unless unit written): 25, treatment time: 6 h): 98.9 ± 11 | L1 promoter activity (concentration (uM unless unit written): 25, treatment time: 24 h): 85 ± 5.2 | L1 promoter activity [1]: 89.5 ± 12 | L1 promoter activity [2]: 85.8 ± 14 | L1 promoter activity [3]: 91.7 ± 11 | L1 promoter activity (concentration (uM unless unit written): 100, treatment time: 24 h): 74.2 ± 9.4 | L1 promoter activity [4]: 90.8 ± 25 | L1 promoter activity [5]: 64.1 ± 6.6

Cc1cc(CC(=O)O)n(C)c1C(=O)c1ccc(Cl)cc1 [Zomepirac]
L1 promoter activity [4]: 102 ± 9.6 | L1 promoter activity [5]: 86.3 ± 6.3

Clc1ccc(C(c2ccccc2Cl)C(Cl)Cl)cc1 (stereo not drawn) [o.p'-Dichlorodiphenyldichloroethane]
L1 promoter activity [1]: 97.3 ± 5 | L1 promoter activity [2]: 108 ± 5.8 | L1 promoter activity [3]: 77.5 ± 11
